# Source: patent publication US20230399320A1, “NOVEL CAPSID ASSEMBLY INHIBITOR” (Pelemed Co., Ltd., priority 2020, published 2023)
# Like-named read-outs stand apart in the source and are kept apart here.
# What was measured:
# [1] = biological target: T1, Cp149 (truncated form of a HBV core protein) (Hepatitis B virus genotype D subtype ayw, UniProt P03146); assay: Protein based assay: immunoblot analysis of in vitro HBV capsid assembly; format: biochemical; details: for inhibition at 10 µM: read-out: Protein based assay (% inhibition, 10 μM); for inhibition at 0.1 µM: read-out: Protein based assay (% inhibition), 0.1 μM; for inhibition at 1 µM: read-out: Protein based assay (% inhibition), 1 μM
# T1 construct: Cp149 (amino acids 1-149) is a truncated form of a HBV core protein; histidine tag (cleaved yes); made in house; host or cells: Escherichia coli BL21(DE3)
# Experimental: Cp149 (amino acids 1-149) is a truncated form of a HBV core protein. It was expressed in Escherichia coli, and the expressed protein was purified. The recombinant Cp149 was expressed in E. coli BL21(DE3) cells cultured in LB medium at 37° C. When the culture reached an OD600 of 0.7 to 0.8, expression of the culture was induced with 0.5 mM isopropyl-β-d-thiogalactopyranoside and the culture was cooled to 16° C. After 16 hours, the cells were harvested, flash-frozen in liquid nitrogen, and stored at −80° C. To purify Cp149, thawed cells were resuspended in lysis buffer (20 mM Tris-HCl pH 9.0, 200 mM NaCl, 10 mM imidazole, 10 μg per mL DNaseI, 1 mM phenylmethylsulfonyl fluoride), and treated with ultrasonic waves. The supernatant was loaded onto Ni-NTA affinity resin. Proteins were eluted using a 20 mM to 500 mM imidazole gradient dissolved in lysis buffer. After removing the histidine tag with thrombin, the protein was further purified by HiTrap Q anion exchange chromatography (17115401, GE Healthcare).
# To determine the effect on in vitro Cp149 assembly, compounds of the present invention were added to the Cp149-containing suspension. The final concentration of Cp149 was 1 mg per mL, and the compounds of the present invention were added at concentrations of 0.1 to 10 μM. The suspension was mixed with reaction buffer (150 mM HEPES, pH 7.5, 15 mM NaCl) added in a 2:1 ratio. In vitro assembly was performed at 37° C. for 1 hour, and HBV capsid was detected by immunoblot analysis using an anti-HBV core antibody (1:2000, B0586, Dako).
# [2] = test system: HBV DNA; assay: Quantitative PCR for measuring HBV DNA in cells (HBV DNA quantification); format: cell-based
# Experimental: After treating cells with the indicated compounds, HBV DNA secreted into the medium and intracellular HBV DNA were extracted, purified, and quantified by quantitative PCR. To isolate the secreted HBV DNA, the culture medium was recovered and centrifuged at 15,000×g to remove debris. The medium was diluted 1:1 with phosphate-buffered saline (PBS), and 1 M NaOH solution was added to a final concentration of 0.1 M. The mixture was incubated at 37° C. for 1 hour. The protein was denatured by adding 2M Tris-HCl solution (pH 7.5) to a final concentration of 0.2 M and incubating at 98° C. for 5 minutes. The protein precipitation was removed by centrifugation at 15,000×g, and the supernatant was subjected to PCR with HBV DNA primer and probe sets:
# Forward: 5′-[…]-3′, Reverse: 5′-[…]-3′, Probe: 5′-[…]-3′.
# [3] = Hepatitis B virus, read-out: HBV DNA quantification (IC50 μM)
# [4] = Hepatitis B virus; read-out: HBV DNA quantification (IC50 μM)
# [5] = read-out: HBV DNA quantification (IC50 μM)
# [6] = Hepatitis B virus, read-out: HBV DNA quantification
# T1 sequence (P03146 1-149): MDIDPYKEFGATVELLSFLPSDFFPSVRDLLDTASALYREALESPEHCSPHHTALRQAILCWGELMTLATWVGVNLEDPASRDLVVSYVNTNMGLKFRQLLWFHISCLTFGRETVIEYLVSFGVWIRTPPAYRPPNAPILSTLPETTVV
Compound,inhibition at 10 µM [1],"IC50 [2, 3]",also measured
"CS(=O)(=O)c1nc(Cl)cc(Nc2cc(F)c(F)c(F)c2)n1 [Compound 16b, 6-chloro-2-(methylsulfonyl)-N-(3,4,5-trifluorophenyl)pyrimidin-4-amine]",82%,0.473 µM,
"CSc1nc(NCCNC(=O)c2ccc(Cl)cc2Cl)cc(Nc2ccc(N3CCOCC3)cc2)n1 [Compound 4d, 2,4-dichloro-N-(2-(2-(methylthio)-6-(4-morpholinophenylamino)pyrimidin-4-ylamino)ethyl)benzamide]",0%,> 10 µM,
"CC(C)(C)OC(=O)N1CCN(c2cc(Nc3ccc(I)cc3)nc(S(C)(=O)=O)n2)CC1 [Compound 22f, tert-butyl 4-(6-(4-iodophenylamino)-2-(methylsulfonyl)pyrimidin-4-yl)piperazine-1-carboxylate]",66%,1.1 µM,
"CC(C)(C)OC(=O)N1CCN(c2cc(Nc3ccc(F)c(F)c3)nc(S(C)(=O)=O)n2)CC1 [Compound 22g, tert-butyl 4-(6-(3,4-difluorophenylamino)-2-(methylsulfonyl)pyrimidin-4-yl)piperazine-1-carboxylate]",84%,0.658 µM,
"CSc1nc(NCCNC(=O)c2ccc(F)cc2)cc(Nc2ccc(N3CCOCC3)cc2)n1 [Compound 4c, 4-fluoro-N-(2-(2-(methylthio)-6-(4-morpholinophenylamino)pyrimidin-4-ylamino)ethyl)benzamide]",0%,,"IC50 [2, 4]: > 10 µM"
"COc1ncccc1C(=O)NCCNc1cc(Nc2ccc(Cl)cc2)nc([S+](C)[O-])n1 (stereo not drawn) [Compound 9c, N-(2-(6-(4-chlorophenylamino)-2-(methylsulfinyl)pyrimidin-4-ylamino)ethyl)-2-methoxynicotinamide]",,0.299 µM,inhibition at 0.1 µM [1]: 27%; inhibition at 1 µM [1]: 80%
"CS(=O)(=O)c1nc(Nc2ccc(F)c(Cl)c2)cc(NC2CCNCC2)n1 [Compound 26f, N^4-(3-chloro-4-fluorophenyl)-2-(methylsulfonyl)-N^6-(piperidin-4-yl)pyrimidine-4,6-diamine]",,0.199 µM,inhibition at 0.1 µM [1]: 59%; inhibition at 1 µM [1]: 95%
"COc1cncc(C(=O)NCCNc2cc(Nc3ccc(N4CCOCC4)cc3)nc(SC)n2)c1 [Compound 4b, 5-methoxy-N-(2-(2-(methylthio)-6-(4-morpholinophenylamino)pyrimidin-4-ylamino)ethyl)nicotinamide]",37%,,"IC50 [2, 4]: > 10 µM"
"COc1ncccc1C(=O)NCCNc1cc(Nc2ccc(F)cc2Cl)nc(S(C)(=O)=O)n1 [Compound 9i, N-(2-(6-(2-chloro-4-fluorophenylamino)-2-(methylsulfonyl)pyrimidin-4-ylamino)ethyl)-2-methoxynicotinamide]",43%,> 10 µM,
"COc1ncccc1C(=O)N1CCN(c2cc(Nc3ccc(N4CCOCC4)cc3)nc([S+](C)[O-])n2)CC1 (stereo not drawn) [Compound 14, (2-methoxypyridin-3-yl)(4-(2-(methylsulfinyl)-6-(4-morpholinophenylamino)pyrimidin-4-yl)piperazin-1-yl)methanone]",33%,,"IC50 [2, 4]: > 10 µM"
"CS(=O)(=O)c1nc(Nc2ccc(F)c(Cl)c2)cc(N2C[C@H]3C[C@@H]2CN3)n1 [Compound 29a, 6-((1R,4R)-2,5-diazabicyclo[2.2.1]heptan-2-yl)-N-(3-chloro-4-fluorophenyl)-2-(methylsulfonyl)pyrimidin-4-amine]",,0.15 µM,
"C[S+]([O-])c1nc(NCCNC(=O)c2ccc(F)cc2)cc(Nc2ccc(N3CCOCC3)cc2)n1 (stereo not drawn) [Compound 5c, 4-fluoro-N-(2-(2-(methylsulfinyl)-6-(4-morpholinophenylamino)pyrimidin-4-ylamino)ethyl)benzamide]",0%,,"IC50 [2, 4]: > 10 µM"
"COc1ncccc1C(=O)NCCNc1cc(Nc2ccc(F)c(F)c2)nc(S(C)(=O)=O)n1 [Compound 9g, N-(2-(6-(3,4-difluorophenylamino)-2-(methylsulfonyl)pyrimidin-4-ylamino)ethyl)-2-methoxynicotinamide]",59%,> 10 µM,
"COc1ncccc1C(=O)NCCNc1cc(Nc2ccc(F)c(F)c2)nc([S+](C)[O-])n1 (stereo not drawn) [Compound 9f, N-(2-(6-(3,4-difluorophenylamino)-2-(methylsulfinyl)pyrimidin-4-ylamino)ethyl)-2-methoxynicotinamide]",38%,> 10 µM,
"CS(=O)(=O)c1nc(Nc2ccc(F)c(Cl)c2)cc(Nc2ccc(F)c(Cl)c2)n1 [Compound 18c, N^4,N^6-bis(3-chloro-4-fluorophenyl)-2-(methylsulfonyl)pyrimidine-4,6-diamine]",57%,0.587 µM,
"C[S+]([O-])c1nc(NCCNC(=O)c2ccc(Cl)cc2Cl)cc(Nc2ccc(N3CCOCC3)cc2)n1 (stereo not drawn) [Compound 5d, 2,4-dichloro-N-(2-(2-(methylsulfinyl)-6-(4-morpholinophenylamino)pyrimidin-4-ylamino)ethyl)benzamide]",0%,> 10 µM,
"COc1ncccc1C(=O)NCCNc1cc(Nc2ccc(I)cc2)nc([S+](C)[O-])n1 (stereo not drawn) [Compound 9e, N-(2-(6-(4-iodophenylamino)-2-(methylsulfinyl)pyrimidin-4-ylamino)ethyl)-2-methoxynicotinamide]",37%,,"IC50 [2, 4]: > 10 µM"
"COc1ncccc1C(=O)NCCNc1cc(Nc2ccc(F)cc2)nc(SC)n1 [Compound 8b, N-(2-(6-(4-fluorophenylamino)-2-(methylthio)pyrimidin-4-ylamino)ethyl)-2-methoxynicotinamide]",74%,,
"6-(4-aminopiperidin-1-yl)-2-(methylsulfonyl)-N-(3,4,5-trifluorophenyl)pyrimidin-4-amine [Compound 26h]",,,"Protein based assay (% inhibition), 0.1 μM ([1]; compound 0.1 μM): 29%; Protein based assay (% inhibition), 1 μM ([1]; compound 1 μM): 96%; IC50 [2, 5]: 0.292 µM"
"COc1ncccc1C(=O)NCCNc1cc(Nc2ccc(Cl)cc2)nc(SC)n1 [Compound 8c, N-(2-(6-(4-chlorophenylamino)-2-(methylthio)pyrimidin-4-ylamino)ethyl)-2-methoxynicotinamide]",26%,,"IC50 [2, 6]: > 10 µM"
"CS(=O)(=O)c1nc(Nc2ccc(F)cc2)cc(Nc2ccc(F)cc2)n1 [Compound 18a, N^4,N^6-bis(4-fluorophenyl)-2-(methylsulfonyl)pyrimidine-4,6-diamine]",49%,,"IC50 [2, 4]: 6.4 µM"
"COc1ncccc1C(=O)NCCNc1cc(Nc2ccc(F)cc2Cl)nc(SC)n1 [Compound 8g, N-(2-(6-(2-chloro-4-fluorophenylamino)-2-(methylthio)pyrimidin-4-ylamino)ethyl)-2-methoxynicotinamide]",43%,,"IC50 [2, 6]: > 10 µM"
"CC(C)(C)OC(=O)N1CCN(c2cc(NCc3ccc(Cl)cc3)nc(S(C)(=O)=O)n2)CC1 [Compound 22d, tert-butyl 4-(6-(4-chlorobenzylamino)-2-(methylsulfonyl)pyrimidin-4-yl)piperazine-1-carboxylate]",55%,5.08 µM,
"COc1ncccc1C(=O)NCCNc1cc(Nc2ccc(I)cc2)nc(SC)n1 [Compound 8e, N-(2-(6-(4-iodophenylamino)-2-(methylthio)pyrimidin-4-ylamino)ethyl)-2-methoxynicotinamide]",43%,,
"CS(=O)(=O)c1nc(Nc2ccc(F)c(Cl)c2)cc(N2C[C@@H]3[C@@H](N)[C@@H]3C2)n1 [Compound 29d, (1R,5S,6s)-3-(6-(3-chloro-4-fluorophenylamino)-2-(methylsulfonyl)pyrimidin-4-yl)-3-azabicyclo[3.1.0]hexan-6-amine]",,,"IC50 [2, 5]: 0.769 µM"
"CS(=O)(=O)c1nc(Nc2ccc(F)c(Cl)c2)cc(N2CC3(CNC3)C2)n1 [Compound 29b, N-(3-chloro-4-fluorophenyl)-2-(methylsulfonyl)-6-(2,6-diazaspiro[3.3]heptan-2-yl)pyrimidin-4-amine]",,0.235 µM,
"CS(=O)(=O)c1nc(Nc2ccc(F)c(Cl)c2)cc(N2C[C@@H]3C[C@H]2CN3)n1 [Compound 29c, 6-((1S,4S)-2,5-diazabicyclo[2.2.1]heptan-2-yl)-N-(3-chloro-4-fluorophenyl)-2-(methylsulfonyl)pyrimidin-4-amine]",,0.428 µM,
